Values quoted from earlier work in patent US20250345348A1, “AMPK ACTIVATOR (CBDA) AND SGLT2 INHIBITOR FOR METABOLIC HEALTH” (SOCIETE DES PRODUITS NESTLE S.A., priority 2022, published 2025).
Like-named read-outs stand apart in the source and are kept apart here.

Question: For `O=C(CCc1ccc(O)cc1)c1c(O)cc(O)cc1O[C@@H]1O[C@H](CO)[C@@H](O)[C@H](O)[C@H]1O` [phlorizin, 1-(2,4-Dihydroxy-6-{[(2S,3R,4S,5S,6R)-3,4,5-trihydroxy-6-(hydroxymethyl)oxan-2-yl]oxy}phenyl)-3-(4-hydroxyphenyl)propan-1-one], which solubility (in ethanol and hot water) is on record?
Answer: soluble

Question: What about the solubility (in ether and cold water) of the same compound?
Answer: poorly soluble

Question: What about the “stability in aqueous solutions” value (prolonged exposure to aqueous solutions) of the same compound?
Answer: hydrolyzes to phloretin and glucose
